Assays:
[1] = tested on: ADP-induced platelet aggregation in human PRP; assay: In-vitro human platelet aggregation in PRP (ADP-induced); assay type: cell-based; settings: for HUMAN PRP % INHIBITION AT 10^-4 M: compound at 10^-4 M, human platelet-rich plasma; for IC50: human PRP, linear regression of the dose response curve
Protocol: In one assay, platelet aggregation is examined in platelet-rich plasma which also is rich in fibrinogen and other plasma proteins. The % inhibition is determined for the test compound by comparing the extent of platelet aggregation in the presence and absence of the test compound.
Healthy male or female donors who have not taken any antiplatelet drugs for at least 2 weeks were fasted for 8 hours prior to drawing blood; then 30 ml whole blood was collected using a butterfly needle and 30 cc plastic syringe with 3 ml of 0.129 M buffered sodium citrate (3.8%). The syringe was rotated carefully as blood was drawn to mix the citrate. Platelet-richplasma (PRP) was prepared by centrifugation at 100×g for 10 minutes at room temperature, allowing the centrifuge to coast to a stop without braking. The PRP was removed from the blood with a plastic pipette and placed in a plastic capped, 50 ml Corning conical sterile centrifuge tube which was held at room temperature. Platelet poor plasma (PPP) was prepared by centrifuging the remaining blood at 2000×g for 15 minutes at room temperature allowing the centrifuge to coast to a stop without braking. The PRP was adjusted with PPP to a count of 2-3×10^8 platelets per ml. 400 μl of the PRP preparation and 50 μl of the compound to be tested or saline were preincubated for 1 minute at 37° C. in a Payton aggregometer (Payton Scientific, Inc., Buffalo, N.Y.). 50 μl of adenosine 5'-diphosphate (ADP) (50 μM) was added to the cuvettes and the aggregation was monitored for 1 minute. All compounds are tested in duplicate. Results are calculated as follows: Percent of control=[(maximal OD minus initial OD of compound) divided by (maximal OD minus initial OD of control saline)]×100. The % inhibition=100-(percent of control).
The compounds tested and their activity results in % inhibition at 10^-4 M and median inhibitory concentration (IC50) were as recorded in Table 1.

[2] = tested on: collagen induced rat thrombocytopenia (platelet aggregation); assay: In vivo rat thrombocytopenia (collagen induced)
Protocol: In another test, the effect of the peptide mimetic compound on collagen induced thrombocytopenia (platelet aggregation) is measured in vivo in the rat. Again, the % inhibition is determined for the test compound and compared against a saine or ethanol vehicle in the absence of the test compound.
Male rats [Charles River, CRL:CD(SD), 400-450 g] were used. The rats were anesthetized with Na pentabarbital (65 mg/kg, Vet Labs, Limited, lnc., Lenexa, Kan.). Two incisions were made to expose both jugular veins. Using an infusion pump (Harvard Apparatus, South Natick, Mass.) and a 5 cc syringe with a 19 g. butterfly, the test compound or vehicle was infused into the left jugular vein at a rate of 0.39 ml/min for 3 min. After 2 min of compound/vehicle infusion, collagen (60 μg/kg) (Helena Laboratories,Beaumont, Tex.) was injected with a one ml syringe into the right jugular vein. The body cavity was opened and the vena cava was exposed for blood sampling. One min after the collagen injection, compound infusion was stopped and blood was sampled from the vena cava (within 30 sec) with a 3 cc syringe containing […] of 4.5% EDTA/Tris (0.1 M) (pH 7.35) plus 150 μM indomethacin. Platelet rich plasma (PRP) was prepared by centrifuging the blood at 126×g for 10 min. Five μ1 of PRP was counted in 20 ml of Isoton®III in a Coulter Counter.
Percent inhibition of collagen induced aggregation was calculated by comparison of the platelet counts in animals that were treated with test compound and collagen (a) with platelet counts for animals receiving no collagen (non-aggregated control) and (b) with platelet counts for animals receiving vehicle and collagen (aggregated control).
The % inhibition of platelet aggregation in vivo and the median effective dose (ED50) of the test compounds are set forth in the following Table II.

Row | SMILES | HUMAN PRP % INHIBITION AT 10^-4 M [1] | IC50 [1] | % INHIBITION AT 1 mg/kg ([2]; 1 mg/kg, infusion into jugular vein, collagen 60 μg/kg, rat) | effective dose relative to that required for equivalent inhibitory activity by Arg-Gly-Asp-(O-methyl-Tyr)-NH2 ([2]; in vivo thrombocytopenia assay, fraction of reference dose) | ED50 ([2]; infusion into jugular vein, collagen induced thrombocytopenia, rat) | ED50 (orally active in rats) ([2]; oral, rats)
1 | COc1ccc(CCNC(=O)[C@H](CC(=O)O)NC(=O)CCCCCCCCNC(=N)N)cc1 [9-guanidino-nonanoyl-Asp-2-(4-methoxyphenyl)ethyl amide] | 100% | 27 µM |  |  |  | 
2 | COc1ccc(CCNC(=O)[C@H](CC(=O)O)NC(=O)CCCCCCCNC(=N)N)cc1OC [8-guanidino-octanoyl-Asp--2-(3,4-dimethoxy-phenyl)ethyl amide] | 100% | 12 µM |  |  |  | 
3 | COc1ccc(CCNC(=O)[C@H](CC(=O)O)NC(=O)CNCCCCNC(=N)N)cc1 [N--(4-guanidinobutyl)-Gly--Asp--2-(4-methoxy-phenyl)ethyl amide] | 0% |  |  |  |  | 
4 | COc1ccc(CCNC(=O)[C@H](CC(=O)O)NC(=O)CCCCCCNC(=N)N)cc1 [7-guanidino-heptanoyl-Asp--2-(4-methoxy-phenyl)ethyl amide] | 43% |  |  |  |  | 
5 | COc1ccc(CNC(=O)[C@H](CC(=O)O)NC(=O)CCCCCCCNC(=N)N)cc1 [8-guanidino-octanoyl-Asp--4-methoxybenzyl amide] | 100% | 33 µM |  |  |  | 
6 | COc1ccc(CCNC(=O)C(CC(=O)O)NC(=O)CCCCCCCNC(=N)N)cc1 (centres unmarked) [8-guanidino-octanoyl-Asp-2-(4-methoxyphenyl)ethyl amide] | 100% |  | 67.05% | about one eighth | 0.07 mg/kg | 7.8 mg/kg
7 | N=C(N)NCCCCCCCC(=O)N[C@@H](CC(=O)O)C(=O)N[C@@H](Cc1ccc(-c2ccccc2)cc1)C(N)=O [8-guanidino-octanoyl-Asp--(4-phenyl)-phenylalanine amide] | 100% | 17 µM |  |  |  | 
8 | COc1ccc(CCNC(=O)[C@H](CC(=O)O)NC(=O)CCCCCCCCCNC(=N)N)cc1 [10-guanidino-decanoyl-Asp--2-(4-methoxy-phenyl)ethyl amide] | 65% | 70 µM |  |  |  | 
